# Assay results reported in patent publication US20240197687A1, “METHODS OF TREATING NEUROINFLAMMATION AND INHIBITING MONOAMINE OXIDASE-A AND RESTORING/UPREGULATING/INCREASING IL-13 AND AND PGC-1 BY ADMINISTERING ORAL DOSAGE FORM CONTAINING MICRONIZED AND NONMICRONIZED PARTICULATE METAXALONE, ALGINIC ACID AND PROPYLENE GLYCOL ALGINATE” (Primus Pharmaceuticals, Inc., priority 2022, published 2024).
# Columns and labels:
# HMC3 microglial cells = assay: Western blot protein levels in IL-1β-stimulated HMC3 cells; type: cell-based, Human; conditions: metaxalone 10, 20, 40 μg/mL, p<0.0001 vs. IL-1β
# Experimental: Western Blot Analysis. HMC3 cells were homogenized in RIPA buffer (25 mM Tris/HCl, pH 7.4; 1.0 mM EGTA; and 1.0 mM EDTA) with 1% of NP40, 0.5% of phenyl methylsulfonyl fluoride (PMSF), aprotinin, and leupeptin and pepstatin (10 μg/mL each) to perform protein extraction. Lysates were centrifuged at 15,000×g for 15 min at 4° C. and the supernatant was collected for protein determination using a specific kit (Bio-Rad DC; Bio-Rad, Richmond, CA, USA). Samples were denatured in a reducing buffer (62 mM Tris pH 6.8, 10% glycerol, 2% SDS, 5% β-mercaptoethanol, and 0.003% bromophenol blue) and proteins were separated by electrophoresis on SDS polyacrylamide gels. Following electrophoresis, samples were transferred onto a PVDF membrane (Amersham, Little Chalfont, UK) in a transfer buffer (39 mM glycine, 48 mM Tris pH 8.3, and 20% methanol) at 200 mA for 1 h. The obtained membranes were incubated with 5% non-fat dry milk in TBS/0.1% Tween for 1 h at room temperature, washed 3 times in TBS/0.1% Tween, and incubated with primary antibodies to detect pNF-κB, PPARγ, PGC-1α (Cell Signaling, Danvers, MA, USA), NRF-2, and MAO-A (Abcam, Cambridge, UK), diluted in TBS/0.1% Tween overnight at 4° C. The day after, following 3 washes with TBS/0.1% Tween, membranes were incubated with secondary peroxidase-conjugated goat anti-mouse and anti-rabbit antibodies (KPL, Gaithersburg, MD, USA) for 1 h at room temperature. After washing, membranes were analyzed by the enhanced chemiluminescence system (LumiGlo reserve; Seracare, Milford, MA, USA). The protein signal was detected and quantified by scanning densitometry using a bio-image analysis system (C-DiGit, Li-cor, Lincoln, NE, USA). The results were expressed as relative integrated intensity and β-actin (Cell Signaling, Danvers, MA, USA) was used to confirm equal protein loading. (See, […]. et al. β-Caryophyllene Inhibits Cell Proliferation through a Direct Modulation of CB2 Receptors in Glioblastoma Cells. Cancers 2020, 12, 1038).
# HMC3 cells = assay: Malonaldehyde (MDA) assay, lipid peroxidation in HMC3 cells; type: cell-based, Human; conditions: IL-1β-stimulated HMC3 cells; metaxalone 10, 20, 40 μg/mL; p<0.0001 vs. IL-1β
# Text: Malonaldehyde Assay. Metaxalone antioxidant effects were examined in HMC3 cells by measuring malonaldehyde (MDA) levels as a marker of lipid peroxidation, as previously described in detail. (See, Ceravolo, I. Et al., Health Potential of Aloe vera against Oxidative Stress Induced Corneal Damage: An “In Vitro” Study. Antioxidants 2021, 10, 318).
# [1] = tested on: CYP1A2, CYP2B6, CYP2C9, CYP2C19, CYP2D6, CYP2E1, CYP3A; conditions: cited from earlier work
compound,measurement,setting,value
"Cc1cc(C)cc(OCC2CNC(=O)O2)c1 (centres unmarked) [metaxalone, 5-[(3,5-dimethylphenoxy)methyl]-2-oxazolidinone]",NRF-2 protein levels,HMC3 microglial cells; dose-dependent,significantly increased
same,PGC-1α protein expression,HMC3 microglial cells,stimulated
same,PPARγ protein expression,HMC3 microglial cells,stimulated
same,p-NF-κB protein levels,HMC3 microglial cells,blunted the increase
same,MDA levels,HMC3 cells,significant reduction
same,CYP induction,[1],inducer of CYP1A2 and CYP3A4
same,CYP inhibition,[1],"inhibitor of CYP1A2, CYP2B6, CYP2C9, CYP2C19, CYP2D6, CYP2E1, and CYP3A"
same,CYP substrate status,[1],substrate of CYP1A2 and CYP2C19
